From PMC9613624 (Journal of medicinal chemistry, 2022)
Entries after “also recorded” stand apart in the source; their conditions may differ.

Legend:
[1] = test system: P-PRAS40; experiment: Western blotting of P-PRAS40 in SW620 cells; conditions: 1 μM
[2] = test system: AKT; experiment: Western blotting of total AKT; type: cell-based; conditions: PC3 cells, 1 μM, 24 h
[3] = test system: P-AKT (S473), P-PRAS40 (T246), P-S6 (S240/244); experiment: Western blotting of downstream signaling in PC3 cells; type: cell-based; conditions: 1 μM, 24 h
[4] = test system: AKT; experiment: Western blotting of T-AKT in SW620 cells; type: cell-based; conditions: SW620 cells
[5] = test system: SW620 cells; experiment: Colony formation assay in SW620 cells; type: cell-based; conditions: 2 weeks, crystal violet
[6] = test system: AKT; experiment: Western blotting of T-AKT in PANC-1 cells; type: cell-based; conditions: PANC-1 cells (KRAS mutant), 1 μM, 24 h

Row | Compound | T-AKT protein level / AKT degradation (western blot, in words) [2] | also measured
1 | Nc1ncccc1-c1nc2ccc(-c3ccccc3)nc2n1-c1ccc(C2(N)CCC2)cc1 [ARQ-092, 3-(3-(4-(1-Aminocyclobutyl)phenyl)-5-phenyl-3H-imidazo[4,5-b]pyridin-2-yl)pyridin −2-amine, reference compound] |  | phosphorylation of PRAS40 in time-course study (in words) ([1]; up to 24 h): potently inhibited
2 | Cc1ncsc1-c1ccc(CNC(=O)[C@@H]2C[C@@H](O)CN2C(=O)[C@@H](NC(=O)CNC(=O)CCc2cccc(-c3ccc4nc(-c5cccnc5N)n(-c5ccc(C6(N)CCC6)cc5)c4n3)c2)C(C)(C)C)cc1 [Compound 11, (2S,4R)-1-((S)-2-(2-(3-(3-(3-(4-(1-Aminocyclobutyl)phenyl)-2-(2-aminopyridin-3-yl)-3H-imidazo[4,5-b]pyridin-5-yl)phenyl)propanamido)acetamido)-3,3-dimethylbutanoyl)-4-hydroxy-N-(4-(4-methylthiazol-5-yl)benzyl)pyrrolidine-2-carboxamide] | completely inactive | 
3 | Cc1ncsc1-c1ccc(CNC(=O)[C@@H]2C[C@@H](O)CN2C(=O)[C@@H](NC(=O)CCNC(=O)CCc2cccc(-c3ccc4nc(-c5cccnc5N)n(-c5ccc(C6(N)CCC6)cc5)c4n3)c2)C(C)(C)C)cc1 [Compound 12, (2S,4R)-1-((S)-2-(3-(3-(3-(3-(4-(1-Aminocyclobutyl)phenyl)-2-(2-aminopyridin-3-yl)-3H-imidazo[4,5-b]pyridin-5-yl)phenyl)propanamido)propanamido)-3,3-dimethylbutanoyl)-4-hydroxy-N-(4-(4-methylthiazol-5-yl)benzyl)pyrrolidine-2-carboxamide] | completely inactive | 
4 | Cc1ncsc1-c1ccc(CNC(=O)[C@@H]2C[C@@H](O)CN2C(=O)[C@@H](NC(=O)CCCCCCCCCCNC(=O)CCc2cccc(-c3ccc4nc(-c5cccnc5N)n(-c5ccc(C6(N)CCC6)cc5)c4n3)c2)C(C)(C)C)cc1 [Compound 20, (2S,4R)-1-((S)-2-(11-(3-(3-(3-(4-(1-Aminocyclobutyl)phenyl)-2-(2-aminopyridin-3-yl)-3H-imidazo[4,5-b]pyridin-5-yl)phenyl)propanamido)undecanamido)-3,3-dimethylbutanoyl)-4-hydroxy-N-(4-(4-methylthiazol-5-yl)benzyl)pyrrolidine-2-carboxamide] | highly effective AKT degraders | 
5 | Cc1ncsc1-c1ccc(CNC(=O)[C@@H]2C[C@@H](O)CN2C(=O)[C@@H](NC(=O)COCC(=O)NCCc2cccc(-c3ccc4nc(-c5cccnc5N)n(-c5ccc(C6(N)CCC6)cc5)c4n3)c2)C(C)(C)C)cc1 [Compound 33, (2S,4R)-1-((S)-2-(2-(2-((3-(3-(4-(1-Aminocyclobutyl)phenyl)-2-(2-aminopyridin-3-yl)-3H-imidazo[4,5-b]pyridin-5-yl)phenethyl)amino)-2-oxoethoxy)acetamido)-3,3-dimethylbutanoyl)-4-hydroxy-N-(4-(4-methylthiazol-5-yl)benzyl)pyrrolidine-2-carboxamide] | effectively induced T-AKT degradation | 
6 | Cc1ncsc1-c1ccc(CNC(=O)[C@@H]2C[C@@H](O)CN2C(=O)[C@@H](NC(=O)CCOCCC(=O)NCCc2cccc(-c3ccc4nc(-c5cccnc5N)n(-c5ccc(C6(N)CCC6)cc5)c4n3)c2)C(C)(C)C)cc1 [Compound 34, (2S,4R)-1-((S)-2-(3-(3-((3-(3-(4-(1-Aminocyclobutyl)phenyl)-2-(2-aminopyridin-3-yl)-3H-imidazo[4,5-b]pyridin-5-yl)phenethyl)amino)-3-oxopropoxy)propanamido)-3,3-dimethylbutanoyl)-4-hydroxy-N-(4-(4-methylthiazol-5-yl)benzyl)pyrrolidine-2-carboxamide] | effectively induced T-AKT degradation | 
7 | Cc1ncsc1-c1ccc(CNC(=O)[C@@H]2C[C@@H](O)CN2C(=O)[C@@H](NC(=O)COCCOCCOCCOCCOCC(=O)NCCc2cccc(-c3ccc4nc(-c5cccnc5N)n(-c5ccc(C6(N)CCC6)cc5)c4n3)c2)C(C)(C)C)cc1 [Compound 40, N^1-(3-(3-(4-(1-Aminocyclobutyl)phenyl)-2-(2-aminopyridin-3-yl)-3H-imidazo[4,5-b]pyridin-5-yl)phenethyl)-N^17-((S)-1-((2S,4R)-4-hydroxy-2-((4-(4-methylthiazol-5-yl)benzyl)carbamoyl)pyrrolidin-1-yl)-3,3-dimethyl-1-oxobutan-2-yl)-3,6,9,12,15-pentaoxaheptadecanediamide] | restored effective AKT degradation activity | 
8 | Cc1ncsc1-c1ccc(CNC(=O)[C@@H]2C[C@@H](O)CN2C(=O)[C@@H](NC(=O)CCOCCOCCOCCOCCOCCC(=O)NCCc2cccc(-c3ccc4nc(-c5cccnc5N)n(-c5ccc(C6(N)CCC6)cc5)c4n3)c2)C(C)(C)C)cc1 [Compound 41, N^1-(3-(3-(4-(1-Aminocyclobutyl)phenyl)-2-(2-aminopyridin-3-yl)-3H-imidazo[4,5-b]pyridin-5-yl)phenethyl)-N^19-((S)-1-((2S,4R)-4-hydroxy-2-((4-(4-methylthiazol-5-yl)benzyl)carbamoyl)pyrrolidin-1-yl)-3,3-dimethyl-1-oxobutan-2-yl)-4,7,10,13,16-pentaoxanonadecanediamide] | restored effective AKT degradation activity | 
9 | Cc1ncsc1-c1ccc(CNC(=O)[C@@H]2C[C@@H](O)CN2C(=O)[C@@H](NC(=O)CCCCCCCC(=O)NCCc2cccc(-c3ccc4nc(-c5cccnc5N)n(-c5ccc(C6(N)CCC6)cc5)c4n3)c2)C(C)(C)C)cc1 [Compound 47, N^1-(3-(3-(4-(1-Aminocyclobutyl)phenyl)-2-(2-aminopyridin-3-yl)-3H-imidazo[4,5-b]pyridin-5-yl)phenethyl)-N^9-((S)-1-((2S,4R)-4-hydroxy-2-((4-(4-methylthiazol-5-yl)benzyl)carbamoyl)pyrrolidin-1-yl)-3,3-dimethyl-1-oxobutan-2-yl)nonanediamide] | particularly effective in T-AKT degradation | downstream signaling inhibition (P-AKT, P-PRAS40, P-S6; western blot, in words) [3]: particularly effective
10 | Cc1ncsc1-c1ccc(CNC(=O)[C@@H]2C[C@@H](O)CN2C(=O)[C@@H](NC(=O)CCCCCCCCC(=O)NCCc2cccc(-c3ccc4nc(-c5cccnc5N)n(-c5ccc(C6(N)CCC6)cc5)c4n3)c2)C(C)(C)C)cc1 [Compound 48, N^1-(3-(3-(4-(1-Aminocyclobutyl)phenyl)-2-(2-aminopyridin-3-yl)-3H-imidazo[4,5-b]pyridin-5-yl)phenethyl)-N^10-((S)-1-((2S,4R)-4-hydroxy-2-((4-(4-methylthiazol-5-yl)benzyl)carbamoyl)pyrrolidin-1-yl)-3,3-dimethyl-1-oxobutan-2-yl)decanediamide] | particularly effective in T-AKT degradation; also recorded: highly effective AKT degraders | downstream signaling inhibition (P-AKT, P-PRAS40, P-S6; western blot, in words) [3]: particularly effective
11 | Cc1ncsc1-c1ccc(CNC(=O)[C@@H]2C[C@@H](O)CN2C(=O)[C@@H](NC(=O)CCCCCCCCCC(=O)NCCc2cccc(-c3ccc4nc(-c5cccnc5N)n(-c5ccc(C6(N)CCC6)cc5)c4n3)c2)C(C)(C)C)cc1 [Compound 49, N^1-(3-(3-(4-(1-Aminocyclobutyl)phenyl)-2-(2-aminopyridin-3-yl)-3H-imidazo[4,5-b]pyridin-5-yl)phenethyl)-N^11-((S)-1-((2S,4R)-4-hydroxy-2-((4-(4-methylthiazol-5-yl)benzyl)carbamoyl)pyrrolidin-1-yl)-3,3-dimethyl-1-oxobutan-2-yl)undecanediamide] | particularly effective in T-AKT degradation; also recorded: highly effective AKT degraders | downstream signaling inhibition (P-AKT, P-PRAS40, P-S6; western blot, in words) [3]: particularly effective
12 | Cc1ncsc1-c1ccc([C@H](C)NC(=O)[C@H]2C[C@H](O)CN2C(=O)[C@@H](NC(=O)CCCCCCCCCCNC(=O)CCc2cccc(-c3ccc4nc(-c5cccnc5N)n(-c5ccc(C6(N)CCC6)cc5)c4n3)c2)C(C)(C)C)cc1 [Compound 63, (2R,4S)-1-((S)-2-(11-(3-(3-(3-(4-(1-Aminocyclobutyl)phenyl)-2-(2-aminopyridin-3-yl)-3H-imidazo[4,5-b]pyridin-5-yl)phenyl)propanamido)undecanamido)-3,3-dimethylbutanoyl)-4-hydroxy-N-((S)-1-(4-(4-methylthiazol-5-yl)phenyl)ethyl)pyrrolidine-2-carboxamide] |  | P-PRAS40 inhibition (western blot verification for proteomics, in words) ([1]; 18 h, Figure S4): no effect; T-AKT level (western blot verification for proteomics, in words) ([4]; 1 μM, 18 h, Figure S4): no effect; effect on AKT protein levels at high concentrations (in words) ([4]; concentrations up to 10 μM, 24 h): no effect
13 | Cc1ncsc1-c1ccc(CNC(=O)[C@@H]2C[C@@H](O)CN2C(=O)[C@@H](NC(=O)CCCCCCCCCC(=O)N2CCN(CC[C@H](NC(=O)C3(N)CCN(c4ncnc5[nH]ccc45)CC3)c3ccc(Cl)cc3)CC2)C(C)(C)C)cc1 [MS21, reference compound] |  | T-AKT degradation (in words) ([4]; indicated concentrations, 24 h, Figure 7E): largely ineffective; inhibition of colony formation (in words) [5]: no effect; T-AKT degradation (in words) [6]: unable to reduce the AKT protein level
